Holding throughout (assay type): in vivo, rat
One experiment relates to hippocampal neurons. Description: Gp120 model, neuronal count. Conditions: CAIII layers, after ICV Gp120; 10 mg/kg/day. Here is the method:
Day 21. Three days later (recovery from the postoperative shock), the 30 rats were randomly divided into three group of 10 animals each: • the first group of 10 rats received an intracarotid injection of 1 ml/kg/day of normal saline for a period of 10 days. • the second group of 10 rats received 10 mg/kg/day of HCl-Gly-Phe-ProNH2 (dissolved in normal saline) for a period of 10 days. • the third group received 20 mg/kg/day of HCl-Gly-Phe-ProNH2 under the same conditions. The injections were given between 9.00 and 9.30 a.m.
Day 30. After the last learning session, the rats were sacrificed by means of decapitation, the brain was rapidly removed and frozen at […] in liquid nitrogen vapor. Brain sections were made by Cryocut at −20° C.
The sections are defrosted and stained with neutral red. After fixation, the number of neurons on one slice of the hippocampus was measured. The method is standardized by counting the neurons on the same slice. An index of the number of neurons compared to a control rat allows for a more reliable quantification than the simple counting.
The neurons are counted in the CAIII layers of the hippocampus. […] By definition, the value found in the control animals is 100 with a maximum variation of 5%.

In experiment [1] the test system is rats previously treated by vincristine. Description: Vincristine model, sound avoidance conditioning (pole climbing test). As to the method:
The rats were slightly anesthetized by ether, an incision was made into the skin of the skull, and the skull was pierced by means of a dental burr. A metal needle was stereotaxically directed to the lateral ventricle, and then fixed by means of dental cement. Every day of the experiment, the patency of the needle was controlled.
Three days after introducing the needle (recovery from the postoperative shock) the non-anesthetized animals were injected 5 μl of normal saline with vincristine in a dose of 5 μg/kg/day. […] This administration was repeated every day for a period of five days.
Three days after the last administration of vincristine, the animals were chloralized (360 mg/kg), and, starting at the external carotid artery, a permanent floating catheter was retrogradely introduced into a common carotid artery. This catheter left again on the top of the skull, and was fixed by means of dental cement. After two days the animals had recovered from the postoperative shock. […] The steady state was reached on Day 3 after the last administration, and the model was stable for a period of several months. Once this lapse of time passed, a second type of degeneration was observed that affects the white matter, and was certainly due to apoptosis phenomena).
Five days after the last administration of vincristine, the twenty rats were randomly divided into two groups of 10 animals each: • one group of 10 rats received an intracarotid injection of 1 ml/kg/day of normal saline (controls) for a period of 10 days. • one group of 10 rats received 20 mg/kg/day of HCl-Gly-Phe-ProNH2 dissolved in normal saline for a period of 10 days. The injections were given at 9.00 a.m.
(§1) During the last five days of treatment, the rats were placed under the common learning conditions of the three models between 10.00 a.m. and 11.00 a.m. (see below).
(§2) During the last five days of treatment, at 10.00 a.m. (1 hour after the administration of HCl-Gly-Phe-ProNH2), the animals were placed into a learning cage for sound avoidance conditioning (Conditioning avoidance response). The animals learned to climb a pole first to escape from and then to avoid an electric shock. This method was standardized and quantified in our laboratory (see Le Poncin M., Lafitte J. C., Rapin J. R., Sound Avoidance Conditioning and a Mathematical approach to the description of acquisition performance, Math. Biosciences 59 (1982) 242–268).
(§3) For a period of five days, the animals were placed everyday under these learning conditions for a total of ten tests a day. Results are expressed as percentage of adequate responses, and the kinetics of the responses is represented by a multi-exponential maximum curve.
(§4) The curve maximum represents the learning capacities. The slope of the curve evaluates the learning speed. The area under the curve (AUC) represents a good evaluation of all conditioning parameters. The maximum value of the area under the curve is 500, if the animals show 100% adequate responses as early as Day 0. In fact, an average area under the curve is calculated per day, what amounts to a maximum value of 100. In the absolute control animals, this average area under the curve is equal to 40+/−4.

Experiment [2] has as its system rats pretreated with orally administered dexamethasone. The experiment is described as follows: Dexamethasone model, sound avoidance conditioning. Here is the method: (§5) 20 rats were orally administered 50 mg/kg/day of dexamethasone over a period of 21 days. At Day 19, the animals were chloralized (360 mg/kg), and a catheter was placed into the carotid artery as described above. At Day 21, the animals were randomly divided into two groups: • one group of 10 rats received an intracarotid injection of 1 ml/kg/day of normal saline for a period of 10 days (controls). • one group of 10 rats received 20 mg/kg/day of HCl-Gly-Phe-PrONH2 dissolved in normal saline for a period of 10 days. The injections were given at 9.00 a.m.
as §1, §2, §3, §4

In experiment [3] the test system is type II glucocorticoid receptors in the hippocampus. Description: Dexamethasone model, determination of the corticoid receptors. The following applies: rats pretreated by dexamethasone, 20 mg/kg/day 10 days. As to the method:
as §5
After the last learning session at 11.00 a.m., the rats were sacrificed by means of decapitation, and the hippocampi were quickly removed and put on a plate cooled to 0° C. The number of glucocorticoid receptors was determined by a binding method using a labeled corticoid and a specific inhibitor to the binding of the corticoid to the receptor (here a total agonist). The protein content was measured by Lowry's method.
The hippocampi of each rat were homogenized in 2 ml of sodium EDTA Glycerol molybdate buffer. […] An aliquot of the supernatant was diluted in distilled water, and the protein content was measured by Lowry's method. […]
After one night of incubation at 4° C., charcoal/dextran was added to absorb […] dexamethasone. After centrifugation, the radioactivity of the supernatant was measured by liquid scintillation. […]

Counter-ions that a name gives are not always drawn. Where a SMILES comes first, the peptide text is derived from it.

`NCC(=O)N[C@@H](Cc1ccccc1)C(=O)N1CCC[C@H]1C(N)=O` [HCl-Gly-Phe-ProNH2, glycyl-L-phenylalanyl-L-prolineamide] (H-Gly-Phe-Pro-NH2): the “Counting of the hippocampal neurons (index, control animals = 100)” value in the experiment on hippocampal neurons was 46 +/− 4. Besides, the “percentage of adequate responses D0” value amounted to 0% in experiment [1] (vincristine 5 μg/kg/day ICV 5 days, 20 mg/kg/day intracarotid 10 days, learning day D0) and 0% in experiment [2] (dexamethasone 50 mg/kg/day oral 21 days, 20 mg/kg/day 10 days, learning day D0). Further, the “AUC (average area under the learning curve per day)” value in experiment [1] (vincristine model, 20 mg/kg/day 10 days) is on record as “**24.8 +/− 3.2”; in experiment [2] (dexamethasone model, 20 mg/kg/day 10 days), “**35.0 +/− 3.1”. In addition, the “percentage of adequate responses D1” value in experiment [1] (vincristine model, 20 mg/kg/day 10 days, learning day D1) is listed as 5 +/− 2%; in experiment [2] (dexamethasone model, 20 mg/kg/day 10 days, learning day D1) it was 7 +/− 2%. The “percentage of adequate responses D2” value in experiment [1] (vincristine model, 20 mg/kg/day 10 days, learning day D2) is “**20 +/− 4%”; in experiment [2] (dexamethasone model, 20 mg/kg/day 10 days, learning day D2) it was “**29 +/− 5%”. In addition, the “percentage of adequate responses D3” value in experiment [1] (vincristine model, 20 mg/kg/day 10 days, learning day D3) is “**40 +/− 5%”; in experiment [2] (dexamethasone model, 20 mg/kg/day 10 days, learning day D3), “**57 +/− 4%”. For the same compound, the “percentage of adequate responses D4” value in experiment [1] (vincristine model, 20 mg/kg/day 10 days, learning day D4) was “**59 +/− 6%”; in experiment [2] (dexamethasone model, 20 mg/kg/day 10 days, learning day D4), “**75 +/− 3%”. In addition, the “effect on learning parameters” value in experiment [1] (vincristine model, intracarotid injection treatment) is “partly restores the learning parameters”. The “effect on learning capacities” value in experiment [2] (dexamethasone model) is listed as “partially restores the learning capacities”. In addition, the results for the “type II glucocorticoid receptors in the hippocampus” value in experiment [3] and in experiment [3] (listed as HCL-GLY-PHE-PRONH2) were “**73 +/− 4 femtomols/mg of proteins” and “reduces the down regulation of the glucocorticoid receptors”, respectively.

Values taken from patent US7129213B2, “Tripeptides and tripeptide derivatives for the treatment of neurodegenerative diseases” (Neurotell AG, priority 2002, dated 2006).
